One assay deals with T1, Falcipain-2 (Plasmodium falciparum, UniProt Q8I6U4).
T1 sequence (Q8I6U4 244-484): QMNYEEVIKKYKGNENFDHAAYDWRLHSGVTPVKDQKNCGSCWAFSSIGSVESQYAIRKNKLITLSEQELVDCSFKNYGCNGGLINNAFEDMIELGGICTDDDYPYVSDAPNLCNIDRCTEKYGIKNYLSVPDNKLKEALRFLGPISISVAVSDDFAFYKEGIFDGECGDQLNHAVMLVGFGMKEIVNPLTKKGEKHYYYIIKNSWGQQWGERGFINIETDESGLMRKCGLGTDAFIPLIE
Briefly: falcipain-2 enzymatic assay (fluorogenic substrate H-D-VLR-AFC, endpoint). The format is biochemical. The settings on record: parasitic recombinant enzyme, pH 5.5, quenched after 60 minutes. The protocol:
(§1) 1) Determination of Falcipain-2, Falcipain-3, Vivapain-2, and Cathepsin S Proteolytic Catalytic Activity
(§2) Assays for Falcipain-2, Falcipain-3, and Vivapain-2 are carried out with parasitic recombinant enzymes. Cathepsins S is carried out with human recombinant enzymes. Standard assay conditions for the determination of kinetic constants used a fluorogenic peptide substrate, typically H-D-VLR-AFC (Falcipain-2, Falcipain-3, Vivapain-2) or KQKLR-AMC (Cathepsin S) and are determined in 100 mM sodium acetate, pH 5.5, containing 10 mM DTT and 0.5 mM CHAPS (Falcipain-2, Falcipain-3, Vivapain-2), or 50 mM MES, pH 6.5, containing 0.5 mM CHAPS, 10 mM L-CYS, 5 mM EDTA (Cathepsin S). Stock substrate solutions are prepared at 20 mM in DMSO. The activity assays contained 30 uM substrate (Falcipain-2, Falcipain-3, Vivapain-2), and 30 uM substrate (Cathepsin S). All assays contained 1% DMSO. […] All assays are conducted at ambient temperature as end point assays being quenched after 60 minutes with the exception of Cathepsin S at 90 minutes, with 16.6 uM E-64 in 1% DMSO. Product formation (AFC or AMC) is determined from fluorescence (excitation at 405 nm; emission at 530 nm, AFC, or excitation at 360 nm; emission at 460 nm, AMC) monitored with a LJL Aquest (Molecular Devices) fluorescent plate reader. In the case of kinetic reads (used in mechanism of action studies), the reaction is not quenched but is read in the plate reader every 3 minutes for approximately 90 minutes. In addition, the mechanism of action studies for Falcipain-2 utilize Z-LR-AMC as the substrate. Product formation is determined from the fluorescence of AMC, measured with a LJL Acquest (Molecular Devices) fluorescent plate reader (excitation at 360 nm; emission at 460 nm).
(§3) Potential inhibitors are evaluated using the quenched read (endpoint) method. Assays are carried out in the presence of variable concentrations of test compound. Reactions are initiated by addition of enzyme and substrate to wells containing inhibitor stamped in 100% DMSO. For endpoint assays, the reaction is quenched with the addition of E64. Dose response data is fit to an IC50 curve with preset fitting tools according to equation 1:
(§4) y=a+(b−a)/(1+(10^X/10^C)^d) (1)
(§5) where y is the response at a particular inhibitor concentration x, a is the minimum response value, b is the maximum response value, c is the IC50, and d is the slope of the IC50 curve. Assuming the compound is a competitive inhibitor, the apparent KI can be calculated from IC50, as shown in equation 2: […]

In assay [1] the test system is Plasmodium falciparum parasite. Kind of assay: whole cell activity against the Plasmodium falciparum parasite. The format is cell-based. The text has this: Equation 7 describes the apparent KI for competitive compounds and was substituted into equations 5 and 6 to generate the relevant binding constants from the fitting routine. In addition, the initial and final velocities were fit to equation 3 to further define the binding mechanism and potency. A complete discussion of this kinetic treatment has been fully described (Morrison et al., Adv. Enzymol. Relat. Areas Mol. Biol., 1988, 61, 201). 2) Determination of Whole Cell Activity Against the Plasmodium falciparum Parasite Compounds can be evaluated for whole cell activity against the Plasmodium falciparum parasite according to the procedure described in Sijwali S, and Rosenthal P. J., (2004) Proceedings of the National Academy of Sciences of the United States of America (PNAS) 101(13), 4384-4389 (see in particular “Measurement of Parasite Growth rates and Inhibitor Sensitivity” on page 4385); IC50 values can be calculated as described in Singh A. and Rosenthal P. J., (2001) Antimicrobial Agents and Chemotherapy 45(3), 949-951 (see in particular page 950, first column); synchronised parasites can be prepared as described in Divo A. A. et al., (1985) Protozool. 32, 59-64.

For the next assay, the target named is T2, Falcipain-3 (Plasmodium falciparum, UniProt Q8IIL0).
T2 sequence (Q8IIL0 243-492): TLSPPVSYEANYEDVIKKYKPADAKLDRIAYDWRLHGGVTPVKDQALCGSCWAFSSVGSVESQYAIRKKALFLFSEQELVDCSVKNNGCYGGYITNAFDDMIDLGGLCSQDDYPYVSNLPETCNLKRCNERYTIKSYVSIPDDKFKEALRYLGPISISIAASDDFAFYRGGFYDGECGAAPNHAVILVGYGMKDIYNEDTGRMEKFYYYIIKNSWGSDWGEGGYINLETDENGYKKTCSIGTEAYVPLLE
Briefly: falcipain-3 enzymatic assay (fluorogenic substrate H-D-VLR-AFC, endpoint). The note with it: parasitic recombinant enzyme, pH 5.5, quenched after 60 minutes. The format is biochemical. Here is the method: as §1, §2, §3, §4, §5

Counter-ions that a name gives are not always drawn.

In the case of `CN1CCN(Cc2ccc(C(=O)NN(c3nc(C#N)nc4[nH]cnc34)C3CCCCC3)cc2)CC1` [Example 30, N′-(2-cyano-1H-purin-6-yl)-N′-cyclohexyl-4-[(4-methyl-1-piperazinyl)methyl]benzohydrazide trifluoroacetate], the IC50 on Falcipain-2 fell in the range of 2.5 to 15 nM; in assay [1] it was 400 to 1000 nM; on Falcipain-3, 15 to 150 nM.
With `CN1CCN(c2cccc(C(=O)NN(c3nc(C#N)nc4c3ncn4C)C3CCCC3)c2)CC1` [Example 33, N′-(2-cyano-9-methyl-9H-purin-6-yl)-N′-cyclopentyl-3-(4-methyl-1-piperazinyl)benzohydrazide trifluoroacetate], the IC50 on Falcipain-2 fell in the range of 1 to 2.5 nM; in assay [1] it was 15 to 150 nM; on Falcipain-3 it was 15 to 150 nM.
As for `CN1CCN(c2cccc(C(=O)NN(c3nc(C#N)nc4c3ncn4C)C3CCCCC3)c2)CC1` [Example 36, N′-(2-cyano-9-methyl-9H-purin-6-yl)-N′-cyclohexyl-3-(4-methyl-1-piperazinyl)benzohydrazide trifluoroacetate], the values for the half-inhibitory concentration (IC50) (at Falcipain-2; in assay [1]; on Falcipain-3) were 2.5 to 15 nM, 15 to 150 nM and 15 to 150 nM, respectively.
Take `CC(C)CN(NC(=O)c1ccc(CN2CCN(C)CC2)cc1)c1nc(C#N)nc2c1ncn2C` [Example 22, N′-(2-cyano-9-methyl-9H-purin-6-yl)-4-[(4-methyl-1-piperazinyl)methyl]-N′-(2-methylpropyl)benzohydrazide]: the IC50 on Falcipain-2 was in the range of 15 to 150 nM; in assay [1], 400 to 1000 nM; at Falcipain-3 it was 250 to 400 nM.
As for `CN(C)CCCn1cnc2c(N(NC(=O)c3cccc(N4CCN(C)CC4)c3)C3CCCC3)nc(C#N)nc21` [Example 37, N′-{2-cyano-9-[3-(dimethylamino)propyl]-9H-purin-6-yl}-N′-cyclo pentyl-3-4-methyl-1-piperazinyl)benzohydrazide trifluoroacetate], the IC50 lay within 1 to 2.5 nM at Falcipain-2, 2.5 to 15 nM in assay [1] and 150 to 250 nM on Falcipain-3.
`CN(C)CCn1cnc2c(N(NC(=O)c3cccc(N4CCN(C)CC4)c3)C3CCCC3)nc(C#N)nc21` [Example 41, N′-{2-cyano-9-[2-(dimethylamino)ethyl]-9H-purin-6-yl}-N′-cyclopentyl-3-(4-methyl-1-piperazinyl)benzohydrazide bis(trifluoroacetate)]: the IC50 on Falcipain-2 is 1 to 2.5 nM; in assay [1], 15 to 150 nM; at Falcipain-3, 15 to 150 nM.
With `CN1CCN(Cc2ccc(C(=O)NN(c3nc(C#N)nc4c3ncn4C)C3CCCC3)cc2)CC1` [Example 47, N′-(2-cyano-9-methyl-9H-purin-6-yl)-N′-cyclopentyl-4-[(4-methyl-1-piperazinyl)methyl]benzohydrazide trifluoroacetate], the IC50 on Falcipain-2 lay within 2.5 to 15 nM; in assay [1], 150 to 250 nM; at Falcipain-3 it was 250 to 400 nM.
Taken in the same sequence, the figures for `CN(C)CCCn1cnc2c(N(NC(=O)c3ccc(CN4CCN(C)CC4)cc3)C3CCCC3)nc(C#N)nc21` [Example 17, N′-{2-cyano-9-[3-(dimethylamino)propyl]-9H-purin-6-yl}-N′-cyclo pentyl-4-[(4-methyl-1-piperazinyl)methyl]benzohydrazide trifluoroacetate] were 1 to 2.5 nM, 15 to 150 nM and 250 to 400 nM.
As for `CN(C)CCn1cnc2c(N(NC(=O)c3ccc(CN4CCN(C)CC4)cc3)C3CCCCC3)nc(C#N)nc21` [Example 44, N′-{2-cyano-9-[2-(dimethylamino)ethyl]-9H-purin-6-yl}-N′-cyclohexyl-4-[(4-methyl-1-piperazinyl)methyl]benzohydrazide trifluoroacetate], the concentration for half-maximal inhibition (IC50) at Falcipain-2 was in the range of 2.5 to 15 nM; in assay [1], 15 to 150 nM; at Falcipain-3 it was 15 to 150 nM.
`CN1CCN(C2CCN(Cc3ccc(C(=O)NN(c4nc(C#N)nc5c4ncn5C)C4CCCCC4)cc3)CC2)CC1` [Example 8, N′N′-(2-cyano-9-methyl-9H-purin-6-yl)-N′-cyclohexyl-4-({[4-(4-methyl-1-piperazinyl)-1-piperidinyl]methyl}benzohydrazide trifluoroacetate]: the IC50 at Falcipain-2 lay within 1 to 2.5 nM; in assay [1], 2.5 to 15 nM; on Falcipain-3, 15 to 150 nM.
As to `CN1CCN(C(=O)C2CCN(Cc3ccc(C(=O)NN(c4nc(C#N)nc5c4ncn5C)C4CCCCC4)cc3)CC2)CC1` [Example 10, N′-(2-cyano-9-methyl-9H-purin-6-yl)-N′-cyclohexyl-4-({4-[(4-methyl-1-piperazinyl)carbonyl]-1-piperidinyl}methyl)benzohydrazide trifluoroacetate], the 50% inhibitory concentration (IC50) on Falcipain-2 was in the range of 2.5 to 15 nM; in assay [1] it was 2.5 to 15 nM; at Falcipain-3 it was 15 to 150 nM.
For the molecule `CN1CCN(Cc2ccc(-c3cncc(C(=O)NN(c4nc(C#N)nc5c4ncn5C)C4CCCC4)c3)cc2)CC1` [Example 27, N′-(2-Cyano-9-methyl-9H-purin-6-yl)-N′-cyclopentyl-5-{4-[(4-methyl-1-piperazinyl)methyl]phenyl}-3-pyridinecarbohydrazide trifluoroacetate], the IC50 at Falcipain-2 is at most 1 nM; in assay [1], 15 to 150 nM; at Falcipain-3, 15 to 150 nM.
Consider `CN(C)CCCn1cnc2c(N(NC(=O)OC(C)(C)C)C3CCCC3)nc(C#N)nc21` [Example 15, 1,1-dimethylethyl 2-{2-cyano-9-[3-(dimethylamino)propyl]-9H-purin-6-yl}-2-cyclopentylhydrazinecarboxylate trifluoroacetate], for which the IC50 at Falcipain-2 is 2.5 to 15 nM; in assay [1], 15 to 150 nM; on Falcipain-3, 15 to 150 nM.
For the molecule `CC(C)(C)OC(=O)NN(CC1CCCC1)c1nc(C#N)nc2c1ncn2CCN1C(=O)c2ccccc2C1=O` [Example 21, 1,1-dimethylethyl-2-{2-cyano-9-[2-(1,3-dioxo-1,3-dihydro-2H-isoindol-2-yl)ethyl]-9H-purin-6-yl}-2-(cyclopentylmethyl)hydrazinecarboxylate], the values for the IC50 (at Falcipain-2; in assay [1]; at Falcipain-3) were 15 to 150 nM, 250 to 400 nM and 250 to 400 nM, respectively.
With `CN(C)CCCn1cnc2c(N(NC(=O)c3ccc(CN4CCN(C)CC4)cc3)C3CCCCC3)nc(C#N)nc21` [Example 31, N′-{2-cyano-9-[3-(dimethylamino)propyl]-9H-purin-6-yl}-N′-cyclo hexyl-4-[(4-methyl-1-piperazinyl)methyl]benzohydrazide trifluoroacetate], the concentration for half-maximal inhibition (IC50) on Falcipain-2 fell in the range of 2.5 to 15 nM; in assay [1], 15 to 150 nM; at Falcipain-3, 15 to 150 nM.
In the case of `CN1CCCC(CN2CCN(Cc3ccc(C(=O)NN(CC4CCCC4)c4nc(C#N)nc5c4ncn5C)cc3)CC2)C1` (centres unmarked) [Example 3, N′-(2-cyano-9-methyl-9H-purin-6-yl)-N′-(cyclopentylmethyl)-4-({4-[(1-methyl-3-piperidinyl)methyl]-1-piperazinyl}methyl)benzohydrazide trifluoroacetate], the IC50 fell in the range of 2.5 to 15 nM on Falcipain-2 and 15 to 150 nM in assay [1].

Broadly, the IC50 is the concentration at which inhibition is half-maximal.
